Source: PMC5344518, “Anti-trypanosomal activity of non-peptidic nitrile-based cysteine protease inhibitors” (PLoS Neglected Tropical Diseases, 2017)
Like-named read-outs stand apart in the source and are kept apart here. Marks after values point to notes of the source that are not given here.

Tests used:
[1] = tested on: amastigote forms of T. cruzi CL Brener strain; assay: Anti-trypanosomal activity assay (beta-galactosidase reporter, infected LLC-MK2 cells); format: cell-based; details: Trypanosoma cruzi
Experimental: Assays were performed against amastigote forms of T. cruzi CL Brener strain, which expresses β-galactosidase derived from Escherichia coli, infecting monkey kidney (LLC-MK2) cells as described. Previously, LLC-MK2 host cells were cultivated in 96-wells microplates (10^3 cells/well). […] Then, the wells were washed with PBS to remove the extracellular parasites and the tested compounds were added in the final concentrations of 0.031, 0.125, 0.5, 2.0, 8.0, 32.0, 128 and 512 μM. After this, the microplates were incubated at 37°C, in CO2 atmosphere (5%), for 5 days. Then, 10 μL of FluoReporter lacZ/Galactosidase Quantitation Kit (Molecular Probes, ThermoFisher Scientific) were added and after 30 minutes the fluorometric reaction was read in a microplate reader (Synergy H1, Biotek) at 386 nm excitation and 448 nm emission. The metabolism of the substrate is directly correlated with the amount of β-galactosidase activity and, therefore, the number amastigotes. The percentage of activity for each compound was determined from the following formula: %activity = 100 –{[(X-PC)/(NC-PC)]x100}, where the optical density values of the samples (X), the positive controls (PC) and negative controls (NC) were used. Culture medium alone was used as positive control (PC) and cells with medium and 0.6% DMSO (v/v) as negative control (NC). All assays were performed in triplicate with two independent experiments.

[2] = tested on: Balb/C 3T3 clone A31 cells; assay: MTT colorimetric cytotoxicity assay; format: cell-based, mouse; details: % cytotoxicity in Balb/C 3T3 clone A31 cells at 128 μM; standard deviation (N = 8) in parentheses
Experimental: Inhibition values were determined in the cell-based assay as previously described. […] Cells were plated at a concentration of 10^5 cell/mL in 96-well plates and incubated for 24 h. […] The cell viability was assessed during 24, 48 and 72 h using the MTT (Sigma-Aldrich) reagent, with an incubation time of 3 h. Formazan crystals were dissolved using a solubility reagent composed of DMSO, glacial acetic acid and […] for 1 h. The readout was obtained using Biotek Synergy HT plate reader at 570 nm. Benznidazole was used as control. This assay was done in quadruplicate in two independent experiments. Statistical analyses were made in GraphPad Prism 5. Concentration-response curves were fitted for the best compounds and the statistical parameters are provided with the graphs in S9 Fig in the supplemental material.

LLC-MK2 cells = assay: Cytotoxicity in LLC-MK2 cells; format: cell-based, monkey; details: % cytotoxicity in LLC-MK2 cells at 128 μM; standard deviation (N = 6) in parentheses
Description: Table 2 Anti-trypanosomal activity of cysteine protease inhibitors. | column: Cytotox LLC-MK2 ^c

cathepsin L [3] = target: T1, cathepsin L (Homo sapiens, UniProt P07711); details: pIC50 = -log10(IC50/M); cited from earlier work
Cathepsin S = details: pIC50 = -log10(IC50/M); cited from earlier work
Recombinant cruzain = target: T2, Recombinant cruzain (Trypanosoma cruzi, UniProt P25779); assay: Enzyme kinetic assay for cruzain (Z-FR-AMC hydrolysis); format: biochemical; details: pKi = -log10(Ki/M); uncertainty in parentheses; 37°C, pH 5.5
T2 construct: consisting of the catalytic domain of cruzipain but excluding the carboxy-terminal extension; made in house
Experimental: Recombinant cruzain, consisting of the catalytic domain of cruzipain but excluding the carboxy-terminal extension, was expressed and purified as previously described. Enzyme kinetic assays for cruzain were carried out at 37°C in 200 μL of a solution containing 100 mM acetate buffer pH 5.5, 300 mM NaCl, 5 mM dithiothreitol (DTT), 5% v/v dimethyl sulfoxide (DMSO), 0.01% v/v Triton X-100 and 0.15 nM cruzain, using Corning® 96-well black flat bottom microplates. (S)-N-(1-((cyanomethyl)amino)-1-oxo-3-phenylpropan-2-yl)benzamide was used as a positive control. The rate of the reaction was monitored using a Biotek Synergy HT plate reader through the fluorescence emission at 460 nm (excitation at 355 nm) due to the hydrolysis of the substrate Z-Phe-Arg-7-amido-4-methylcoumarin (Z-FR-AMC, Sigma-Aldrich). The enzyme stock aliquot was rapidly thawed at 37°C and kept on ice until activation, in which it was incubated for 20 min. in the assay buffer (100 mM acetate pH 5.5 and 5 mM DTT) followed by additional 2 min. incubation with inhibitors before the reaction was started by the addition of the substrate.
Visual inspection and a pre-reading of plate wells were performed to check for possible precipitation and background fluorescence, respectively. Fluorescence emission spectra were also recorded for all inhibitors, using the same excitation wavelength (355 nm) as for the fluorometric assay. […] The reaction was started by the addition of varying concentrations of the substrate and the wells monitored for a total of 5 minutes of reaction. The initial velocities of the substrate hydrolysis under first-order reaction were calculated by Gen5 Biotek software based on the linear-regression coefficient from the data fitting of Relative Fluorescence Unit (mRFU) as a function of time (min).
Each experiment was performed in duplicates for each compound being tested. A control measurement in absence of inhibitor (KM) was carried out for each setup plate and the kinetic affinity constants (Ki) were calculated from non-linear fit of Michaelis-Menten curves to the data of initial velocities as a function of eight different concentrations of the substrate Z-FR-AMC from 30.0–0.8 μM. All inhibitors were evaluated in two different concentrations, which were chosen based on a previous screening (percentage of inhibition) at 1.7 μM substrate (~KM). SigmaPlot (v. 10.0) was employed for the non-linear fit and the kinetic parameters determination.

Cathepsin K = details: pIC50 = -log10(IC50/M); cited from earlier work
cathepsin L [4] = target: T1, cathepsin L; assay: Enzyme kinetic assay for cathepsin L; format: biochemical; details: pKi = -log10(Ki/M); uncertainty in parentheses; 37°C, pH 5.5
Experimental: (§1) Enzyme kinetic assays for cathepsin L were performed in a similar manner to the cruzain assays at 37°C in 200 μL of a solution containing 100 mM acetate buffer pH 5.5, 300 mM NaCl, 1 mM dithiothreitol (DTT), 1 mM EDTA, 5% v/v dimethyl sulfoxide (DMSO), 0.01% v/v Triton X-100 and 0.30 nM cathepsin L, using Corning® 96-well black flat bottom microplates. Using the QFRET technology, compounds 9–12 were tested for inhibition of cathepsin L-mediated cleavage of a synthetic peptide Z-Phe-Arg-AMC (10 μM final concentration) using 0.1 nM [final] human Cat L (prepared in-house). […]

Cathepsin B = details: pIC50 = -log10(IC50/M); cited from earlier work
human Cat L = target: T3, human Cat L (Homo sapiens, UniProt P07711); assay: Cat L inhibition assay (QFRET, Z-Phe-Arg-AMC cleavage); format: biochemical; details: pIC50 = -log10(IC50/M); determined using the Cat L inhibition assay method of ref. 24; pH 6.4; read-out: Cathepsin L pIC50 (converted)
T3 construct: made in house
Experimental: as §1

[5] = 120 h, pEC50 = -log10(EC50/M), T. cruzi CL Brener amastigotes in LLC-MK2 cells, 5 days, read-out: pEC50 (anti-trypanosomal activity) (converted)
[6] = LLC-MK2, 0.125 μM, standard deviation (N = 6) in parentheses, read-out: %activity at 0.125 μM
[7] = LLC-MK2, 0.5 μM, standard deviation (N = 6) in parentheses, read-out: %activity at 0.5 μM
[8] = LLC-MK2, 2 μM, standard deviation (N = 6) in parentheses, read-out: %activity at 2 μM
[9] = LLC-MK2, 8 μM, standard deviation (N = 6) in parentheses, read-out: %activity at 8 μM
[10] = LLC-MK2, T. cruzi CL Brener strain, read-out: EC50 (anti-trypanosomal activity)

T2 sequence (P25779 123-337 limits assumed): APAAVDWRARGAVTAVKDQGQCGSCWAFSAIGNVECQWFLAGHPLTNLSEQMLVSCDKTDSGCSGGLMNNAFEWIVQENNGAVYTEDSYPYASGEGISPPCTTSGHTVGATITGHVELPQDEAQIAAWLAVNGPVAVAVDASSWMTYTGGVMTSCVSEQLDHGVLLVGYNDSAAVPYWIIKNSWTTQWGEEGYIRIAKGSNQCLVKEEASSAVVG
T3 sequence (P07711 114-333): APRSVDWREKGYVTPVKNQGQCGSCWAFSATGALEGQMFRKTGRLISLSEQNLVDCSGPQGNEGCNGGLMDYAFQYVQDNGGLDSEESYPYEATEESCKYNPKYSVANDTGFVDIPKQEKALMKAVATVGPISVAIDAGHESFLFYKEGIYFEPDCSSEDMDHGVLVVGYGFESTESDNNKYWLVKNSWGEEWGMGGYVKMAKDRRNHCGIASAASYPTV
T1 sequence (P07711 114-333, species assumed): as the sequence (P07711 114-333) above

Row | Compound | EC50 [1, 5] | inhibition at 0.125 µM [1, 6] | inhibition at 0.5 µM [1, 7] | inhibition at 2 µM [1, 8] | inhibition at 8 µM [1, 9] | Cytotox Balb/C 3TC [2] | Cytotox LLC-MK2 (LLC-MK2 cells) | Cathepsin L pIC50 (cathepsin L [3]) | Cathepsin S pIC50 (Cathepsin S) | Ki (Recombinant cruzain) | Cathepsin K pIC50 (Cathepsin K) | Ki (cathepsin L [4]) | Cathepsin B pIC50 (Cathepsin B) | EC50 [1, 10] | IC50 (human Cat L) | inhibition at 0.125 µM ([1]; LLC-MK2, read-out: %activity at 0.125 μM) | inhibition at 0.5 µM ([1]; LLC-MK2, read-out: %activity at 0.5 μM) | inhibition at 2 µM ([1]; LLC-MK2, read-out: %activity at 2 μM) | inhibition at 8 µM ([1]; LLC-MK2, read-out: %activity at 8 μM)
1 | O=C(Cn1ccnc1[N+](=O)[O-])NCc1ccccc1 [Compound 1, benznidazole] | 2510 nM | 3% | 7% | 33% | 59% | 0 (0) % | 41 (8) % |  |  |  |  |  |  |  |  |  |  |  | 
2 | CC(C)(F)C[C@H](N[C@@H](c1ccc(-c2ccc(S(C)(=O)=O)cc2)cc1)C(F)(F)F)C(=O)NC1(C#N)CC1 [Compound 4, odanacatib] | 2510 nM | 22% | 28% | 36% | 44% | 27 (15) % | 31 (4) % | 5.5 ^d | 7.2 ^d | 126 nM | 9.7 ^d | 6310 nM | 6.0 ^d |  |  |  |  |  | 
3 | N#CC1(NC(=O)[C@H](Cc2ccccc2)N[C@H](c2ccccc2)C(F)(F)F)CC1 [Compound 5, (S)-N-(1-cyanocyclopropyl)-3-phenyl-2-(((R)-2,2,2-trifluoro-1-phenyl-ethyl)amino)propanamide] | 126 nM | 44% | 55% | 62% | 70% | 1 (7) % | 0 (0) % |  |  | 2510 nM |  | 794 nM |  | 120 nM |  |  |  |  | 
4 | N#CCNC(=O)[C@@H]1CCCC[C@H]1C(=O)N1CCCCC1 [Compound 7] |  | 0% | 2% | 9% | 12% | 2 (7) % | 4 (3) % | < 4 ^e | 5.7 ^e | 7940 nM | 7.1 ^e |  | 5.1 ^e |  |  |  |  |  | 
5 | N#CCNC(=O)[C@@H]1CCCC[C@H]1C(=O)N1CCN(c2ccccc2)CC1 [Compound 8] |  | 1% | 7% | 21% | 35% | 0 (0) % | 29 (8) % | < 4 ^e | 6.0 ^e | 5010 nM | 8.1 ^e |  | 6.3 ^e |  |  |  |  |  | 
6 | CS(=O)(=O)c1ccc(N2CCN(C(=O)[C@@H]3CCCC[C@H]3C(=O)NC3(C#N)CC3)CC2)cc1 [Compound 9] |  | 6% | 15% | 30% | 33% | 3 (7) % | 0 (0) % |  | 5.7 ^g | 5010 nM | 7.7 ^g |  | 5.6 ^g |  | > 10000 nM |  |  |  | 
7 | COc1ccc(N2CCN(C(=O)[C@@H]3CCCC[C@H]3C(=O)NC3(C#N)CC3)[C@H](C)C2)cc1OC [Compound 10] |  |  |  |  |  | 0 (0) % | 15(3) % |  | 5.8 ^g | 1260 nM | 8.4 ^g |  | 5.7 ^g |  | > 10000 nM | 6% | 22% | 26% | 28%
8 | COc1cc(N2CCN(C(=O)[C@@H]3CCCC[C@H]3C(=O)NC3(C#N)CC3)[C@H](C)C2)ccc1C1CC1 [Compound 11] | 251 nM | 33% | 62% | 76% | 83% | 0 (0) % | 36 (7) % |  | 5.9 ^g | 2510 nM | 8.5 ^g |  | 5.9 ^g | 250 nM | > 10000 nM |  |  |  | 
9 | Cc1nn(C)c2cc(N3CCN(C(=O)[C@@H]4CCCC[C@H]4C(=O)NC4(C#N)CC4)[C@H](C)C3)ccc12 [Compound 12] | 1260 nM | 20% | 40% | 45% | 50% | 0 (0) % | 8 (2) % |  | 5.9 ^g | 3160 nM | 8.0 ^g |  | 6.1 ^g | 1300 nM | > 10000 nM |  |  |  | 
